Laboratory results taken from patent US20250326765A1, “PDE4B INHIBITOR AND USE THEREOF” (XIZANG HAISCO PHARMACEUTICAL CO., LTD., priority 2022, published 2025).

Assays:
[1] = target: T1, hERG potassium ion channel (Homo sapiens, UniProt Q12809); test: Test for hERG potassium ion channel (manual patch-clamp, CHO cells); format: cell-based; conditions: CHO cells stably expressing hERG, whole cell patch-clamp; read-out: IC50, inhibition of hERG potassium channel current
T1 construct: expressed in transfected cells
T1 sequence (Q12809 whole entry): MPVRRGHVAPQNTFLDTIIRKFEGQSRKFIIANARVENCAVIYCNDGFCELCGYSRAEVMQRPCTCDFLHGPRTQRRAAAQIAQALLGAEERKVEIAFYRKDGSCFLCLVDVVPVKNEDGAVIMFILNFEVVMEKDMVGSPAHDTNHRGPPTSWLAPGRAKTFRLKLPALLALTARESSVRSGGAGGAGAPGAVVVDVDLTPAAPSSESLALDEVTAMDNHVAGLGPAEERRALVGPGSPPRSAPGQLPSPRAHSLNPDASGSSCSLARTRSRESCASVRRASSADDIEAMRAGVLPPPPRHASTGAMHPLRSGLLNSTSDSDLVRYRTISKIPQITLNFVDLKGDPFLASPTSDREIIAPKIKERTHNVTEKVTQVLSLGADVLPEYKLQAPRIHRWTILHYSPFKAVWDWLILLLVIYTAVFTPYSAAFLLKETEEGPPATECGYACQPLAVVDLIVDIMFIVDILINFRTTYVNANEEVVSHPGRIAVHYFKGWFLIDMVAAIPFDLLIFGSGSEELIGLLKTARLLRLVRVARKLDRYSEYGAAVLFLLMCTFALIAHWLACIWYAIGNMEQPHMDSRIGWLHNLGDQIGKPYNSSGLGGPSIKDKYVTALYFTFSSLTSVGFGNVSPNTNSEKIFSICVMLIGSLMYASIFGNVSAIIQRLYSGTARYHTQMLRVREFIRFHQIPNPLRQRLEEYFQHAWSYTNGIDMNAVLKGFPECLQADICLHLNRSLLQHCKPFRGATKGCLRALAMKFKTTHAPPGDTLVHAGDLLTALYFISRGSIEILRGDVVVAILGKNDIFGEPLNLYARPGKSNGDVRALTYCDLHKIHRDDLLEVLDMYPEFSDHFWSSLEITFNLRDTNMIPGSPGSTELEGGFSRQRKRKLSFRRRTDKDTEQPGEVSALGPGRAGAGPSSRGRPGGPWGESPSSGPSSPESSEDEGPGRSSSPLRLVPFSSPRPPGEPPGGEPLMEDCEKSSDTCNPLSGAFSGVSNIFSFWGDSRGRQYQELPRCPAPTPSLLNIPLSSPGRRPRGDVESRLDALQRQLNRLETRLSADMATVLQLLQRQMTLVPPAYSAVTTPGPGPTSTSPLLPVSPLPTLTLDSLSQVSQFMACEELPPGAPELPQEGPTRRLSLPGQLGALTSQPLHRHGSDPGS
Description: Experimental Platform: Electrophysiological Manual Patch-Clamp System
Cell line: Chinese hamster ovary (CHO) cell line stably expressing hERG potassium ion channel
Experimental method: CHO (Chinese Hamster Ovary) cells stably expressing hERG potassium channel were subjected to a whole cell patch-clamp technique to record the hERG potassium channel current at room temperature. The glass microelectrode was made of a glass electrode blank (BF150-86-10, Sutter) by a puller. The tip resistance after filling the liquid in the electrode was about 2-5 MQ. The glass microelectrode can be connected to the patch-clamp amplifier by inserting the glass microelectrode into an amplifier probe. The clamping voltage and data recording were controlled and recorded by the pClamp 10 software through a computer. The sampling frequency was 10 kHz, and the filtering frequency was 2 kHz. After the whole cell records were obtained, the cells were clamped at −80 mV, and the step voltage that induced the hERG potassium current (IhERG) was depolarized from −80 mV to +20 mV for 2 s, then repolarized to −50 mV, and returned to −80 mV after 1 s. This voltage stimulation was given every 10 s, and the administration process was started after the hERG potassium current was confirmed to be stable (at least 1 minute). The compound was administered for at least 1 minute at each test concentration, and at least 2 cells (n: 2) were tested at each concentration.
Data processing: Data analysis processing was carried out by using pClamp 10, GraphPad Prism 5, and Excel software. The degree of inhibition on the hERG potassium current (peak value of hERG tail current induced at −50 mV) at different compound concentrations was calculated by the following formula:
[formula] • where Inhibition % represents the percentage inhibition of the compound on the hERG potassium current, and I and Io represent the amplitude of the hERG potassium current after and before administration, respectively.
Compound IC50 was calculated using GraphPad Prism 5 software by fitting according to the following equation: […]

[2] = target: T2, PDE4D2 (Homo sapiens, UniProt Q08499); test: Effect of compounds on PDE4D2 activity (fluorescence polarization kit); format: biochemical; conditions: class symbols
T2 construct: purchased BPS Bioscience 60345
T2 sequence (Q08499 303-809): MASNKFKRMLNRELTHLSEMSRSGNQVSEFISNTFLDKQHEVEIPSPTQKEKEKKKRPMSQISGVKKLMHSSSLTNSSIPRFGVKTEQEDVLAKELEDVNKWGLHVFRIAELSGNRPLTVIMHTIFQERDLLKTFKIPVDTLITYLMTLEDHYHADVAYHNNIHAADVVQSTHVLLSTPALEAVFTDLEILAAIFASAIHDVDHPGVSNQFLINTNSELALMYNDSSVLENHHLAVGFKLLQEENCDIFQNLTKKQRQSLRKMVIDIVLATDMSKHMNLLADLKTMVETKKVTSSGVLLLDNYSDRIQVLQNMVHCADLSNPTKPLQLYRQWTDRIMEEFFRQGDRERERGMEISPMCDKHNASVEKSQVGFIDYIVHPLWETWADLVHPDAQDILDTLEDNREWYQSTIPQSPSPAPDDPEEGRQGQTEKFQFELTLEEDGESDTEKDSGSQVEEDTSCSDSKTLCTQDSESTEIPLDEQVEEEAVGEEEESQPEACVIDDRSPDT
Protocol: The effect of compounds on PDE4D2 activity was detected by a fluorescence polarization kit (BPS Bioscience, Catalog #60345). During the reaction, 12.5 μL of 0.272 ng/well of an enzyme (final concentration: 0.068 ng/well) and 12.5 μL of the compound diluted in a gradient manner (DMSO concentration: 4%) were first pre-incubated at room temperature for 15 minutes, the same volume of the enzyme at the same concentration and 12.5 μL of PDE buffer containing 4% DMSO were added to the positive control well, and 25 μL of PDE buffer containing 2% DMSO was added to the negative control well. After completion, 25 μL of […] FAM-Cyclic-3′,5′-AMP (final concentration: […]) was added to each well, fully mixed, and then incubated at room temperature with slow shaking for 30 minutes. The Binding Agent was diluted with the Binding Agent Diluent (cAMP) at a ratio of 1:100 for later use, 100 μl/well of the Binding Agent dilution was taken and added to all wells of the test plate and incubated at room temperature with slow shaking for 1 hour.
After the incubation was complete, BMG LRBTECH microplate reader was used for FP detection, with Excitation at 485 nm and Emission at 520 nm. FP was usually represented by mP value.
[formula] • I∥ (S520): fluorescence intensity in parallel direction • I⊥ (P520): fluorescence intensity in perpendicular direction • G: G factor=1
(§1) [formula] • mP(sample): mP of the test compound in a reaction well • mP(negative control): mP in the negative control well • mP(positive control): mP in the positive control well
According to the calculated inhibition rate at each concentration, the IC50 value of each compound was calculated by GraphPad Prism 8 software.

[3] = target: T3, PDE4B1 (Homo sapiens, UniProt Q07343); test: Effect of compounds on PDE4B1 activity (IMAP fluorescence polarization kit); format: biochemical; conditions: class symbols
T3 construct: purchased BPS 60041
T3 sequence (Q07343 whole entry): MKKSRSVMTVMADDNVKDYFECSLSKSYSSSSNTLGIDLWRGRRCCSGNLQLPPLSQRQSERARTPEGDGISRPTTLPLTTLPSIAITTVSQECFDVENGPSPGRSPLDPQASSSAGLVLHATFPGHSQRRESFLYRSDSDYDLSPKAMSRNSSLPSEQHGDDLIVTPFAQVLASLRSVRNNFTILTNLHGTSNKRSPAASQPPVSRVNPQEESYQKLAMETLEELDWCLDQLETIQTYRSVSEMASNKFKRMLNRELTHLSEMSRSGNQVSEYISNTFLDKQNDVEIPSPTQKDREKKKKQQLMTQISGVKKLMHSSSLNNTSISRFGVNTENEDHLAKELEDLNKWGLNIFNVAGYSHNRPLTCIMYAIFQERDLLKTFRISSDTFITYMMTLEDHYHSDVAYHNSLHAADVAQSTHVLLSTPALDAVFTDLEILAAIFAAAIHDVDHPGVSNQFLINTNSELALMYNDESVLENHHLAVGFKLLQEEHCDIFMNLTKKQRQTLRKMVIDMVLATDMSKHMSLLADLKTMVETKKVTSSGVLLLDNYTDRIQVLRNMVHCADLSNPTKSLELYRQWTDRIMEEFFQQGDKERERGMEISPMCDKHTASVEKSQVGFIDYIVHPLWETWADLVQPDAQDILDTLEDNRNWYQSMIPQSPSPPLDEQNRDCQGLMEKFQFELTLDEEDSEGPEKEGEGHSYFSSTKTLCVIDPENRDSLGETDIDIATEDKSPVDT
Protocol: The IMAP Reaction Buffer containing 0.1% BSA (5×) in the kit was diluted into a 1-fold reaction buffer containing 1 mM DTT. 0.12 nM PDE4B1 (BPS, Cat #60041) was added to the 1-fold reaction buffer to form a 2-fold enzyme solution. 10 μL of the 2-fold enzyme solution was added to wells of a 384-well reaction plate. For the negative control well, 10 μL of the 1-fold reaction buffer was used instead of the enzyme solution. Centrifugation at 1000 rpm for 1 minute and incubation at room temperature for 15 minutes were carried out. 0.2 uM FAM-labeled cAMP (FAM-cAMP, Molecular Device, Cat #R7506) was added to the 1-fold reaction buffer to form a 2-fold substrate solution. 10 μL of the 2-fold substrate solution was added to each well of the 384-well reaction plate. Centrifugation at 1000 rpm for 1 minute was carried out. A reaction was carried out at room temperature for 20 minutes. IMAP Progressive Binding Buffer A (5×), IMAP Progressive Binding Buffer B (5×), and IMAP Progressive Binding Reagent (provided by IMAP FP IPP Explorer Kit) were prepared into a reaction stop solution according to the instructions for use. 60 μL of an […] reaction stop solution was added to each well of the 384-well reaction plate to stop the reaction, and the reaction product was centrifuged at 1000 rpm for 1 minute. Incubation at room temperature in the dark for 60 minutes was carried out. The mP values (Ex480/Em535 (s), Em535 (p)) were read by a microplate reader (Envision).
FP was usually represented by mP value. mP value for FP measurement=1000*(S−G*P)/(S+G*P) • S: fluorescence intensity in parallel direction • P: fluorescence intensity in perpendicular direction • G: G factor=1
as §1
According to the calculated inhibition rate at each concentration, the IC50 value of each compound was calculated by XLFit excel add-in version 5.4.0.8 software.
Y=Bottom+(Top−Bottom)/(1+(IC50/X)^HillSlope) Fitting formula: […]

Work on `[O-][S@+]1CCc2nc(N3CCC=C(c4ncc(Cl)cn4)CC3)nc(NC3(CO)CCC3)c21` [Compound 34] yielded an IC50 [1] of 13.6 µM, an IC50 [2] of less than 0.01 µM and an IC50 [3] of less than 0.01 µM.
